In US8580787B2, “Compositions and methods for reducing activation of alpha-1 receptors” (Eye Therapies LLC, priority 2008, dated 2013):

Assays:
[1] = FIGS. 5A-C: induction and reversal of rebound hyperemia in a patient's eyes; assay type: in vivo, human; conditions: brimonidine at […], right eye, after VISINE Original
Source text: FIG. 5A is a baseline visual appearance of two eyes of a patient with an ocular condition.

[2] = Example 2: Lasik prophylaxis, postoperative hyperemia, hemorrhage and flap dislocation; conditions: brimonidine 0.02%
[3] = brimonidine 0.01-[…] left eye vs tetrahydrozoline 0.05%, oxymetazoline […], naphazoline […] right eye; baseline redness 4/4
Source text: FIG. 4A is a baseline visual appearance of two eyes of a patient with an ocular condition.
In an average clinical situation, baseline redness is at 1-1.5/4.

[4] = Example 5: chronic red eyes, patient satisfaction assessment, eld brimonidine vs Naphcon-A; assay type: in vivo, human; conditions: brimonidine at […], drops twice a day for three to five weeks, seven patients, all patients
Experimental: The treatment was through drops twice a day for three to five weeks. At the end, patient satisfaction assessment was conducted.

[5] = 0.03% brimonidine nasal spray, 0.9% saline vehicle, n of 1

## Brc1c(N=C2NCCN2)ccc2nccnc12.O=C(O)C(O)C(O)C(=O)O [brimonidine, 5-bromo-6-(2-imidazolidinylideneamino)quinoxaline L-tartrate]
[1]
  effect on VISINE Original induced rebound hyperemia: reversing the VISINE Original® induced rebound hyperemia
[2]; from day 1 after Lasik
  cosmetic appearance vs. no vasoconstrictor and vs. Naphcon-A: much improved
[2]; over 500 eyes
  hyperemia in the majority of the 1+ or less hyperemic group: no or only trace hyperemia
[3]
  scleral whitening brightening effects: significant scleral whitening brightening effects
[4]
  patient-reported redness: reduced redness
[5]
  duration of complete relief of moderate nasal congestion per application: 3 to 5 h
